“Also recorded” adds a separate entry of the source.
System: SNc dopaminergic neurons
Assay: Whole cell patch clamp recordings of pacemaking in dopaminergic neurons in brain slices
Format: cell-based, mouse

Which “effect on autonomous pacemaking of dopaminergic neurons” value (tissue slice from an adult, FIG. 1) does the source give for `COCCOC(=O)C1=C(C)NC(C)=C(C(=O)OC(C)C)C1c1cccc([N+](=O)[O-])c1` (stereo not drawn) [nimodipine, isopropyl 2-methoxyethyl 1,4-dihydro-2,6-dimethyl-4-(m-nitrophenyl)-3,5-pyridinedicarboxylate] here?
Its value is “inhibits autonomous pacemaking of dopaminergic neurons”.

For `NC1=N[C@H](O)[C@H]2[C@H]3O[C@]4(O)O[C@@H]([C@@H](O)[C@@]2(N1)[C@@H]4O)[C@]3(O)CO` [tetrodotoxin], which “effect of blockade of TTX sensitive sodium channels on spikes and oscillations” value is on record?
The value was “eliminates spikes but not the underlying oscillations that drive pacemaking”.

Which “effect of sustained blockade on pacemaking (altered pacemaking mechanism)” value (adult SNc dopaminergic neuron, before, during and after application, FIG. 4) does the source give for `COC(=O)C1=C(C)NC(C)=C(C(=O)OC(C)C)C1c1cccc2nonc12` (stereo not drawn) [isradipine, 3,5-pyridinedicarboxylic acid, 4-(4-benzofurazanyl)-1,4-dihydro-2,6-dimethyl-, methyl 1-methylethyl ester] here?
The value was “altered pacemaking mechanism can be elicited; also recorded: restores pacemaking and dopaminergic neuron cell function through an altered pacemaking mechanism”.

From patent publication US20210177819A1, “METHODS AND COMPOSITIONS FOR MODULATING CALCIUM CHANNELS” (Northwestern University, priority 2005, published 2021)
